Experimental data taken from patent US11596639B2, “Substituted indole Mcl-1 inhibitors” (Vanderbilt University, priority 2016, dated 2023).
Where two headings read alike, the source gives them in different places.

Key:
[1] = tested on: H929 human cancer cell lines; assay: Cellular viability / proliferation (Cell TiterGlo, 72 h); format: cell-based
Method: Cellular Viability of Human Tumor Cell Lines
To evaluate compound effect on cellular proliferation, cells were plated at 1,000 cells/well in 96-well tissue culture plates in a total volume of 90 μL medium supplemented with 10% FBS (Sigma, Saint Louis, Mo.). 24 hours later, 10 μL of compound (in a 2-fold serial dilution) is added to the cells for a top concentration of 50 μM and a final DMSO concentration <1%. After 72 hours, 50 μL of Cell TiterGlo (Promega, Madison, Wis., USA) reagent is added to each well and plates are incubated at room temperature, in the dark, for 30 minutes. Luminescence is measured on a BioTek Cytation 3. Luminescence values are imported into a template in XLFit (Guildford, Surrey, UK) that uses a four-parameter fit to generate an IC50 value for each compound dilution series on the plate.

Mcl-1 = Mcl-1 (Homo sapiens (Human), UniProt Q07820); assay: Fluorescence polarization anisotropy (FPA) competition assay, FITC-Bak or FITC-Bim BH3 peptide; format: binding; conditions: read-out: Ki for Inhibition of Mcl-1 by FPA assay
[2] = Homo sapiens, NCI-H929, 72 h, read-out: GI50 on cellular proliferation of H929 human cancer cell lines, H929 cells, 72 h, Cell TiterGlo, 10% FBS
[3] = H929 cells, 72 h, Cell TiterGlo, 10% FBS, read-out: GI50 on cellular proliferation of H929 human cancer cell lines

Mcl-1, sequence (Q07820 172-327): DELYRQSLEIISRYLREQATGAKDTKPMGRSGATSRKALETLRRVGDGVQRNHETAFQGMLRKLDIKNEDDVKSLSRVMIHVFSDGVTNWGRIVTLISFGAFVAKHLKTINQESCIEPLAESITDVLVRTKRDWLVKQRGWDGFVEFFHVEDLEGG

Row | Structure (SMILES) | GI50 [1, 2] | Ki (Mcl-1) | GI50 [1, 3]
1 | Cc1cc(OCCCc2c3n(c4c(-c5c(C)nc(CN(C)CCN(C)C)nc5C)c(Cl)ccc24)[C@H](C)CN(c2cn(C)c4ccc(C(=O)O)cc24)C3=O)cc(C)c1Cl [Example 448, (R)-3-(7-Chloro-10-(3-(4-chloro-3,5-dimethylphenoxy)propyl)-6-(2-(((2-(dimethylamino)ethyl)(methyl)amino)methyl)-4,6-dimethylpyrimidin-5-yl)-4-methyl-1-oxo-3,4-dihydropyrazino[1,2-a]indol-2(1H)-yl)-1-methyl-1H-indole-5-carboxylic acid] | 360 nM | 2.2 nM | 
2 | CC[C@@H]1Cn2c(c(CCCOc3cc(C)c(Cl)c(C)c3)c3ccc(Cl)c(-c4c(C)nn(C)c4C)c32)C(=O)N1Cc1ccc(C(=O)O)cn1 [Example 20, (R)-6-((7-chloro-10-(3-(4-chloro-3,5-dimethylphenoxy)propyl)-3-ethyl-1-oxo-6-(1,3,5-trimethyl-1H-pyrazol-4-yl)-3,4-dihydropyrazino[1,2-a]indol-2(1H)-yl)methyl)nicotinic acid] | 6500 nM | 2.5 nM | 
3 | Cc1cc(N2C[C@@H](C)n3c(c(CCCOc4cc(C)c(Cl)c(C)c4)c4ccc(Cl)c(-c5c(C)nn(C)c5C)c43)C2=O)c2c(c1)cc(C(=O)O)n2Cc1cccc(C)n1 [Example 457, (R)-7-(7-Chloro-10-(3-(4-chloro-3,5-dimethylphenoxy)propyl)-4-methyl-1-oxo-6-(1,3,5-trimethyl-1H-pyrazol-4-yl)-3,4-dihydropyrazino[1,2-a]indol-2(1H)-yl)-5-methyl-1-((6-methylpyridin-2-yl)methyl)-1H-indole-2-carboxylic acid] | < 200 nM | < 1 nM | 
4 | Cc1cc(OCCCc2c3n(c4c(-c5c(C)nn(CCN6CCCC6)c5C)c(Cl)ccc24)[C@H](C)CN(c2cn(C)c4ccc(C(N)=O)cc24)C3=O)cc(C)c1Cl [Example 392, (R)-3-(7-chloro-10-(3-(4-chloro-3,5-dimethylphenoxy)propyl)-6-(3,5-dimethyl-1-(2-(pyrrolidin-1-yl)ethyl)-1H-pyrazol-4-yl)-4-methyl-1-oxo-3,4-dihydropyrazino[1,2-a]indol-2(1H)-yl)-1-methyl-1H-indole-5-carboxamide] | 950 nM | 23 nM | 
5 | Cc1cc(OCCCc2c3n(c4c(-c5c(C)nn(C)c5C)c(Cl)ccc24)[C@H](C)CN(c2ccnc4ccc(-c5nn[nH]n5)cc24)C3=O)cc(C)c1Cl [Example 414, (R)-2-(6-(2H-Tetrazol-5-yl)quinolin-4-yl)-7-chloro-10-(3-(4-chloro-3,5-dimethylphenoxy)propyl)-4-methyl-6-(1,3,5-trimethyl-1H-pyrazol-4-yl)-3,4-dihydropyrazino[1,2-a]indol-1(2H)-one] | 1400 nM | < 1 nM | 
6 | Cc1cc(OCCCc2c3n(c4c(-c5c(C)nn(C)c5C)c(Cl)ccc24)[C@H](C)CN(c2cccc4cc(-c5nnco5)n(C)c24)C3=O)cc(C)c1Cl [Example 341, (R)-7-Chloro-10-(3-(4-chloro-3,5-dimethylphenoxy)propyl)-4-methyl-2-(1-methyl-2-(1,3,4-oxadiazol-2-yl)-1H-indol-7-yl)-6-(1,3,5-trimethyl-1H-pyrazol-4-yl)-3,4-dihydropyrazino[1,2-a]indol-1(2H)-one] | 920 nM | 4.2 nM | 
7 | Cc1cc(OCCCc2c3n(c4c(-c5c(C)nn(C)c5C)c(Cl)ccc24)[C@H](C)CN(c2cc(C(=O)O)nc4c2ccn4C)C3=O)cc(C)c1Cl [Example 167, (R)-4-(7-chloro-10-(3-(4-chloro-3,5-dimethylphenoxy)propyl)-4-methyl-1-oxo-6-(1,3,5-trimethyl-1H-pyrazol-4-yl)-3,4-dihydropyrazino[1,2-a]indol-2(1H)-yl)-1-methyl-1H-pyrrolo[2,3-b]pyridine-6-carboxylic acid] | 4100 nM | < 1 nM | 
8 | COCCN1CCN(Cc2nc(C)c(-c3c(Cl)ccc4c(CCCOc5cc(C)c(Cl)c(C)c5)c5n(c34)[C@H](C)CN(c3cn(C)c4ccc(C(=O)O)cc34)C5=O)c(C)n2)CC1 [Example 439, (R)-3-(7-Chloro-10-(3-(4-chloro-3,5-dimethylphenoxy)propyl)-6-(2-((4-(2-methoxyethyl)piperazin-1-yl)methyl)-4,6-dimethylpyrimidin-5-yl)-4-methyl-1-oxo-34-dihydropyrazino[1,2-a]indol-2(1H)-yl)-1-methyl-1H-indole-5-carboxylic acid] |  | 1.9 nM | < 200 nM
9 | Cc1cc(OCCCc2c3n(c4c(-c5c(C)n[nH]c5C)c(Cl)ccc24)CCCN(c2cc(C(=O)O)cc4c2ccn4C)C3=O)cc(C)c1Cl [Example 72, 4-(8-chloro-11-(3-(4-chloro-3,5-dimethylphenoxy)propyl)-7-(3,5-dimethyl-1H-pyrazol-4-yl)-1-oxo-4,5-dihydro-1H-[1,4]diazepino[1,2-a]indol-2(3H)-yl)-1-methyl-1H-indole-6-carboxylic acid] | 4700 nM | < 1 nM | 
10 | CCCn1cc(N2C[C@@H](C)n3c(c(CCCOc4cc(C)c(Cl)c(C)c4)c4ccc(Cl)c(-c5c(C)nn(C)c5C)c43)C2=O)c2cc(C(=O)O)ccc21 [Example 158, (R)-3-(7-Chloro-10-(3-(4-chloro-3,5-dimethylphenoxy)propyl)-4-methyl-1-oxo-6-(1,3,5-trimethyl-1H-pyrazol-4-yl)-3,4-dihydropyrazino[1,2-a]indol-2(1H)-yl)-1-propyl-1H-indole-5-carboxylic acid] | 480 nM | < 1 nM | 
11 | CC[C@@H]1Cn2c(c(CCCOc3cc(C)c(Cl)c(C)c3)c3ccc(Cl)c(-c4c(C)nn(C)c4C)c32)C(=O)N1c1cccc(C(=O)O)c1 [Example 21, (R)-3-(7-chloro-10-(3-(4-chloro-3,5-dimethylphenoxy)propyl)-3-ethyl-t-oxo-6-(1,3,5-trimethyl-1H-pyrazol-4-yl)-3,4-dihydropyrazino[1,2-a]indol-2(1H)-yl)benzoic acid] |  | 2.3 nM | 4900 nM
12 | Cc1cc(OCCCc2c3n(c4c(-c5c(C)nn(C)c5C)c(Cl)ccc24)CCCN(c2cc(C(=O)O)cc4c2cnn4CCN(C)C)C3=O)cc(C)c1Cl [Example 40, 4-[8-Chloro-11-[3-(4-chloro-3,5-dimethyl-phenoxy)propyl]-1-oxo-7-(1,3,5-trimethylpyrazol-4-yl)-4,5-dihydro-3H-[1,4]diazepino[1,2-a]indol-2-yl]-1-[2-(dimethylamino)ethyl]indazole-6-carboxylic acid] |  | 3.9 nM | 
13 | Cc1cc(CCCCc2c(C(=O)N3CCN(c4cc(C(=O)O)ccn4)CC3)n(Cc3cccnc3)c3c(-c4c(C)nn(C)c4C)c(Cl)ccc23)cc(C)c1Cl [Example 741, 2-(4-(6-Chloro-3-(4-(4-chloro-3,5-dimethylphenyl)butyl)-1-(pyridin-3-ylmethyl)-7-(1,3,5-trimethyl-1H-pyrazol-4-yl)-1H-indole-2-carbonyl)piperazin-1-yl)isonicotinic acid] |  | > 200 nM | 
14 | COC(=O)c1cn(C)c2c(N3C[C@@H](C)n4c(c(CCCOc5cc(C)c(Cl)c(C)c5)c5ccc(Cl)c(-c6c(C)nn(C)c6C)c54)C3=O)cccc12 [Example 205, Methyl (R)-7-(7-chloro-10-(3-(4-chloro-3,5-dimethylphenoxy)propyl)-4-methyl-1-oxo-6-(1,3,5-trimethyl-1H-pyrazol-4-yl)-3,4-dihydropyrazino[1,2-a]indol-2(1H)-yl)-1-methyl-1H-indole-3-carboxylate] |  | 2.4 nM | 
